According to patent publication US8716297B2, “Chemical entities to be used for Wee1 inhibition for the treatment of cancer” (AbbVie Inc., priority 2011, dated 2014):

Molecular target: T1, GST-tagged-Wee1 kinase (Homo sapiens, UniProt P30291)
T1 construct: purchased Carnabio 05-177
Experiment: Wee1 time-resolved fluorescence equilibrium binding assay (displacement of Oregon Green-labeled ATP-competitive probe)
Details: TR-FRET probe displacement; 2 nM GST-Wee1, 300 nM probe, 1 hour incubation; read-out: Wee-1 binding (Ki nM)
Method: Wee1 kinase was assayed using a time-resolved fluorescence equilibrium binding assay monitoring displacement of a rapidly reversible Oregon Green-labeled ATP-competitive kinase probe (N-(2-(2-(2-(4-(4-(5-chloro-4-(2-(1-hydroxycyclobutyl)thiazol-5-yl)-1H-pyrrolo[2,3-b]pyridin-2-yl)phenyl)piperazin-1-yl)ethoxy)ethoxy)ethyl)-2′,7′-difluoro-3′,6′-dihydroxy-3-oxo-3H-spiro[isobenzofuran-1,9′-xanthene]-5-carboxamide) by competitive Wee1 inhibitors.

T1 sequence (P30291 whole entry): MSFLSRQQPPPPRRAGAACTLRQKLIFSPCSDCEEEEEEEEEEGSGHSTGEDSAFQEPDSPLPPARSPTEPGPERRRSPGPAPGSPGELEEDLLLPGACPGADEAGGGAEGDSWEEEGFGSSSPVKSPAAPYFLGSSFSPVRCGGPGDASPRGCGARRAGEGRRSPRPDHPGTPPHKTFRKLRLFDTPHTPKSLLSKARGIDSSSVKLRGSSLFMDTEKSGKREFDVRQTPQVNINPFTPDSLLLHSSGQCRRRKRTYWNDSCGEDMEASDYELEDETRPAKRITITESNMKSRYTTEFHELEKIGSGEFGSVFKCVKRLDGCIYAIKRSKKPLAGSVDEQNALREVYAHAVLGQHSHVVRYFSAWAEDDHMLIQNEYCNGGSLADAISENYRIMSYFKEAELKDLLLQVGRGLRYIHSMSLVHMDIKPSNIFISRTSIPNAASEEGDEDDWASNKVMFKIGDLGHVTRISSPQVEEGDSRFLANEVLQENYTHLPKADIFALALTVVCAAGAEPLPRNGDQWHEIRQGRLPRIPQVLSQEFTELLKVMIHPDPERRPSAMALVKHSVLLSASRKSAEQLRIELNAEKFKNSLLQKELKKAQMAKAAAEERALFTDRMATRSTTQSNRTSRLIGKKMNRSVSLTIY

Ki	Structure (SMILES)
591 nM	COC(=O)c1ccc2c(c1)N(Cc1c(Cl)cccc1Cl)S(=O)(=O)c1cnc(Nc3ccc(N4CCN(C)CC4)cc3)nc1-2 [Example 95, methyl 6-(2,6-dichlorobenzyl)-2-{[4-(4-methylpiperazin-1-yl)phenyl]amino}-6H-pyrimido[5,4-c][2,1]benzothiazine-8-carboxylate 5,5-dioxide]
2 nM	CCCN1c2ccc(Br)cc2-c2nc(Nc3ccc(N4CCN(C)CC4)cc3)ncc2S1(=O)=O [Example 96, 9-bromo-N-[4-(4-methylpiperazin-1-yl)phenyl]-6-propyl-6H-pyrimido[5,4-c][2,1]benzothiazin-2-amine 5,5-dioxide]
6 nM	CCCN1c2ccc(-c3ccccc3)cc2-c2nc(Nc3ccc(N4CCN(C)CC4)cc3)ncc2S1(=O)=O [Example 97, N-[4-(4-methylpiperazin-1-yl)phenyl]-9-phenyl-6-propyl-6H-pyrimido[5,4-c][2,1]benzothiazin-2-amine 5,5-dioxide]
2.4 nM	CCCN1c2ccc(-c3cccnc3)cc2-c2nc(Nc3ccc(N4CCN(C)CC4)cc3)ncc2S1(=O)=O [Example 98, N-[4-(4-methylpiperazin-1-yl)phenyl]-6-propyl-9-(pyridin-3-yl)-6H-pyrimido[5,4-c][2,1]benzothiazin-2-amine 5,5-dioxide]
3 nM	CCCN1c2ccc(-c3ccncc3)cc2-c2nc(Nc3ccc(N4CCN(C)CC4)cc3)ncc2S1(=O)=O [Example 99, N-[4-(4-methylpiperazin-1-yl)phenyl]-6-propyl-9-(pyridin-4-yl)-6H-pyrimido[5,4-c][2,1]benzothiazin-2-amine 5,5-dioxide]
4 nM	CCCN1c2ccc(-c3cccc(C(=O)NC)c3)cc2-c2nc(Nc3ccc(N4CCN(C)CC4)cc3)ncc2S1(=O)=O [Example 100, N-methyl-3-(2-{[4-(4-methylpiperazin-1-yl)phenyl]amino}-5,5-dioxido-6-propyl-6H-pyrimido[5,4-c][2,1]benzothiazin-9-yl)benzamide]
7.6 nM	CCCN1c2ccc(-c3ccccc3CN(C)C)cc2-c2nc(Nc3ccc(N4CCN(C)CC4)cc3)ncc2S1(=O)=O [Example 101, 9-{2-[(dimethylamino)methyl]phenyl}-N-[4-(4-methylpiperazin-1-yl)phenyl]-6-propyl-6H-pyrimido[5,4-c][2,1]benzothiazin-2-amine 5,5-dioxide]
210 nM	C=CCN1c2ncccc2-c2nc(Nc3ccc(N4CCN(C)CC4)cn3)ncc2S1(=O)=O [Example 102, N-[5-(4-methylpiperazin-1-yl)pyridin-2-yl]-6-(prop-2-en-1-yl)-6H-pyrido[2,3-c]pyrimido[4,5-e][1,2]thiazin-2-amine 5,5-dioxide]
110 nM	C=CCN1c2ncccc2-c2nc(Nc3ccc(N4CCNCC4)cn3)ncc2S1(=O)=O [Example 103, N-[5-(piperazin-1-yl)pyridin-2-yl]-6-(prop-2-en-1-yl)-6H-pyrido[2,3-c]pyrimido[4,5-e][1,2]thiazin-2-amine 5,5-dioxide]
